From US20170157301A1, “LEOLIGIN DERIVATIVES AS SMOOTH MUSCLE CELL PROLIFERATION INHIBITORS” (TECHNISCHE UNIVERSITAET WIEN, priority 2014, published 2017)

Test system: SMCs in relation to ECs
Test: activity ratio: efficiency towards SMCs / efficiency towards ECs
Assay type: cell-based
Conditions: activity ratio class; order in Table 1 follows the calculated values
Experimental: For determination of vascular SMC proliferation, 0.5×10^4 viable rat aortic SMCs per well were seeded in SMC growth medium (DMEM/F12 medium with 20% serum, 30 μg/mL Gentamicin and 15 ng/mL Amphotericin) in 96-well plates. 24 h later, the medium was removed, the cells were washed once with SMC starvation medium (DMEM/F12 medium with 0.1% serum, 0.2% BSA, 30 μg/mL Gentamicin and 15 ng/mL Amphotericin) and incubated in starvation medium for further 24 h.
The quiescent cells were then pretreated for 30 min with the test compounds and induced to proliferate with 20 ng/mL platelet-derived growth factor (PDGF). Unstimulated cells were utilized for normalization and estimation of the basal level of proliferation. The final concentration of the solvent vehicle, dimethyl sulfoxide (DMSO), was the same (0.1%) in all wells. 48 h later, the SMC proliferation was quantified by resazurin dye conversion for 2 h as previously described (H. Joa et al., J. Nat. Prod. 74(6), 1513-6 (2011)).
For determination of endothelial cell proliferation, 0.5×10^4 HUVECtert immortalized human umbilical vein endothelial cells (H. B. Schiller et al., Mol. Biol. Cell. 20(3), 745-756 (2009)) were seeded in 96-well plates for 24 h in HUVEC Complete Medium (EBM™ growth medium supplemented with 10% fetal bovine serum, EBM™ SingleQuots (Lonza, Basel, Switzerland), 100 U/mL benzylpenicillin, 100 μg/mL streptomycin, and 1% amphotericin). Afterwards, the medium was exchanged with fresh HUVEC Complete Medium and cells were treated with the indicated compounds for 48 h. After the end of the incubation period, the medium was removed, the cells were washed once with 200 μL/well PBS, and treated with 150 μL HUVEC Complete Medium containing 10 μg/mL resazurin. 2 h later, the fluorescence was measured at a wavelength of 580 nm, with excitation wavelength 535 nm in a 96-well plate reader (Tecan GENios Pro; Tecan Group Ltd., Mannedorf, Switzerland).
In every case, the percentage of viable cells was subtracted from 1, in order to obtain a measure of efficiency of the test compounds towards each particular type of cells, and subsequently, the efficiency quotient towards SMCs and ECs was calculated and taken as the “activity ratio” and thus as a measure of selective efficiency of each test compound towards SMCs in relation to ECs. For example, the synthetic Leoligin with the bio ID 2418 prepared in Comparative Example 27 as compound 10-22 gave the following results:
Due to the usual fluctuations in determining surviving cells, which amount to approximately ±10%, and due to the relatively strong resulting fluctuations in calculating quotients—especially if the inhibitory effect of said novel compounds towards ECs is very poor—said threshold value of 1.50 for the activity ratio, as already mentioned above, was introduced.
In the following, a table listing every compound prepared in examples and comparative Examples for which an activity ratio (a.r.) of >1.0 was determined, is given.

Compound	a.r. code
COc1ccc(C[C@H]2CO[C@H](c3ccc(OC)c(OC)c3)[C@H]2COC(=O)C2CCCC2)cc1OC [Comparative Example 36, ((2S,3R,4R)-4-(3,4-dimethoxybenzyl)-2-(3,4-dimethoxyphenyl)tetrahydrofuran-3-yl)methyl cyclopentanecarboxylate]	V (1.0 < a.r. < 1.50)
COc1ccc(C[C@H]2CO[C@H](c3ccc(OC)c(OC)c3)[C@H]2COC(=O)C2CCCCC2)cc1OC [Comparative Example 37, ((2S,3R,4R)-4-(3,4-dimethoxybenzyl)-2-(3,4-dimethoxyphenyl)tetrahydrofuran-3-yl)methyl cyclohexanecarboxylate]	V (1.0 < a.r. < 1.50)
COc1ccc(C[C@H]2CO[C@H](c3ccc(OC)c(OC)c3)[C@H]2COC(=O)c2ccc3ccccc3c2)cc1OC [Comparative Example 38, ((2S,3R,4R)-4-(3,4-dimethoxybenzyl)-2-(3,4-dimethoxyphenyl)tetrahydrofuran-3-yl)methyl 2-naphthoate]	V (1.0 < a.r. < 1.50)
COc1cc([C@H]2OC[C@H](Cc3ccc(C)cc3)[C@@H]2COC(=O)C2CCCC2)cc(OC)c1OC [Comparative Example 39, ((2S,3R,4R)-4-(4-methylbenzyl)-2-(3,4,5-trimethoxyphenyl)tetrahydrofuran-3-yl)methyl cyclopentanecarboxylate]	V (1.0 < a.r. < 1.50)
COc1ccc([C@H]2OC[C@H](Cc3ccc(C(F)(F)F)cc3)[C@@H]2COC(=O)c2ccccc2C)cc1OC [Comparative Example 40, ((2S,3R,4R)-2-(3,4-dimethoxyphenyl)-4-(4-(trifluoromethyl)benzyl)tetrahydro-furan-3-yl)methyl 2-methylbenzoate]	V (1.0 < a.r. < 1.50)
COc1ccc(C[C@H]2CO[C@H](c3ccc(OC)c(OC)c3)[C@H]2COC(=O)CC(C)C)cc1OC [Comparative Example 41, ((2S,3R,4R)-4-(3,4-dimethoxybenzyl)-2-(3,4-dimethoxyphenyl)tetrahydrofuran-3-yl)methyl 3-methylbutanoate]	V (1.0 < a.r. < 1.50)
COc1ccc(C[C@H]2CO[C@H](c3ccc(OC)c(OC)c3)[C@H]2COC(=O)CC(C)(C)C)cc1OC [Comparative Example 42, ((2S,3R,4R)-4-(3,4-dimethoxybenzyl)-2-(3,4-dimethoxyphenyl)tetrahydrofuran-3-yl)methyl 3,3-dimethylbutanoate]	V (1.0 < a.r. < 1.50)
COc1ccc(C[C@H]2CO[C@H](c3ccc(F)cc3)[C@H]2COC(=O)CC(C)(C)C)cc1OC [Comparative Example 43, ((2S,3R,4R)-4-(3,4-dimethoxybenzyl)-2-(4-fluorophenyl)tetrahydrofuran-3-yl)-methyl 3,3-dimethylbutanoate]	V (1.0 < a.r. < 1.50)
CCC(CC)C(=O)OC[C@H]1[C@@H](Cc2ccc(OC)c(OC)c2)CO[C@@H]1c1ccc(OC)c(OC)c1 [Comparative Example 44, ((2S,3R,4R)-4-(3,4-dimethoxybenzyl)-2-(3,4-dimethoxyphenyl)tetrahydrofuran-3-yl)methyl 2-ethylbutanoate]	V (1.0 < a.r. < 1.50)
COc1ccc(C[C@H]2CO[C@H](c3ccc(OC)c(OC)c3)[C@H]2COC(=O)C(C)(C)C)cc1OC [Comparative Example 45, ((2S,3R,4R)-4-(3,4-dimethoxybenzyl)-2-(3,4-dimethoxyphenyl)tetrahydrofuran-3-yl)methyl pivalate]	V (1.0 < a.r. < 1.50)
COc1ccc(C[C@H]2CO[C@H](c3cc(OC)c(OC)c(OC)c3)[C@H]2COC(=O)C2=CCCCC2)cc1OC [Comparative Example 46, ((2S,3R,4R)-4-(3,4-dimethoxybenzyl)-2-(3,4,5-trimethoxyphenyl)tetrahydro-furan-3-yl)methyl cyclohex-1-enecarboxylate]	V (1.0 < a.r. < 1.50)
COc1ccc([C@H]2OC[C@H](Cc3ccc(C(C)(C)C)cc3)[C@@H]2CO)cc1OC [Example 1, ((2S,3R,4R)-4-(4-(tert-butyl)benzyl)-2-(3,4-dimethoxyphenyl)tetrahydrofuran-3-yl)methanol]	A (a.r. ≧ 1.50)
COc1ccc([C@H]2OC[C@H](Cc3ccc(C)cc3)[C@@H]2CO)cc1OC [Example 2, ((2S,3R,4R)-2-(3,4-dimethoxyphenyl)-4-(4-methylbenzyl)tetrahydrofuran-3-yl)-methanol]	AAA (a.r. ≧ 5.0)
COc1ccc([C@H]2OC[C@H](Cc3cccc4ccccc34)[C@@H]2CO)cc1OC [Example 3, ((2S,3R,4R)-2-(3,4-dimethoxyphenyl)-4-(naphthalen-1-ylmethyl)tetrahydro-furan-3-yl)methanol]	AA (a.r. ≧ 2.0)
COc1ccc([C@H]2OC[C@H](Cc3ccc(C(F)(F)F)cc3)[C@@H]2CO)cc1OC [Example 4, ((2S,3R,4R)-2-(3,4-dimethoxyphenyl)-4-(4-(trifluoromethyl)benzyl)tetrahydro-furan-3-yl)methanol]	A (a.r. ≧ 1.50)
CCCCc1ccc(C[C@H]2CO[C@H](c3ccc(OC)c(OC)c3)[C@H]2CO)cc1 [Example 5, ((2S,3R,4R)-4-(4-butylbenzyl)-2-(3,4-dimethoxyphenyl)tetrahydrofuran-3-yl)-methanol]	AA (a.r. ≧ 2.0)
COc1ccc([C@H]2OC[C@H](Cc3ccc(C(C)(F)F)cc3)[C@@H]2CO)cc1OC [Example 6, ((2S,3R,4R)-4-(4-(1,1-difluoroethyl)benzyl)-2-(3,4-dimethoxyphenyl)tetrahydro-furan-3-yl)methanol]	AA (a.r. ≧ 2.0)
COc1cc([C@H]2OC[C@H](Cc3ccccc3)[C@@H]2CO)cc(OC)c1OC [Example 7, ((2S,3R,4R)-4-benzyl-2-(3,4,5-trimethoxyphenyl)tetrahydrofuran-3-yl)methanol]	AAA (a.r. ≧ 5.0)
COc1cc([C@H]2OC[C@H](Cc3ccc(C(F)(F)F)cc3)[C@@H]2CO)cc(OC)c1OC [Example 8, ((2S,3R,4R)-4-(4-(trifluoromethyl)benzyl)-2-(3,4,5-trimethoxyphenyl)tetrahydro-furan-3-yl)methanol]	AAA (a.r. ≧ 5.0)
COc1cc([C@H]2OC[C@H](Cc3ccc(-c4ccccc4)cc3)[C@@H]2CO)cc(OC)c1OC [Example 9, ((2S,3R,4R)-4-([1,1′-biphenyl]-4-ylmethyl)-2-(3,4,5-trimethoxyphenyl)-tetrahydrofuran-3-yl)methanol]	AA (a.r. ≧ 2.0)
C/C=C(/C)C(=O)OC[C@H]1[C@@H](Cc2ccc(C(C)(C)C)cc2)CO[C@@H]1c1ccc(OC)c(OC)c1 [Example 10, (Z)-((2S,3R,4R)-4-(4-(tert-butyl)benzyl)-2-(3,4-dimethoxyphenyl)tetrahydro-furan-3-yl)methyl 2-methylbut-2-enoate]	AA (a.r. ≧ 2.0)
C/C=C(/C)C(=O)OC[C@H]1[C@@H](Cc2ccc(C(=O)OCC)cc2)CO[C@@H]1c1ccc(OC)c(OC)c1 [Example 11, ethyl 4-(((3R,4R,5S)-5-(3,4-dimethoxyphenyl)-4-((((Z)-2-methylbut-2-enoyl)-oxy)methyl)tetrahydrofuran-3-yl)methyl)benzoate]	A (a.r. ≧ 1.50)
C/C=C(/C)C(=O)OC[C@H]1[C@@H](Cc2ccccn2)CO[C@@H]1c1ccc(OC)c(OC)c1 [Example 12, (Z)-((2S,3R,4R)-2-(3,4-dimethoxyphenyl)-4-(pyridin-2-ylmethyl)tetrahydro-furan-3-yl)methyl 2-methylbut-2-enoate]	AAA (a.r. ≧ 5.0)
C/C=C(/C)C(=O)OC[C@H]1[C@@H](Cc2ccc(CCCC)cc2)CO[C@@H]1c1ccc(OC)c(OC)c1 [Example 13, (Z)-((2S,3R,4R)-4-(4-butylbenzyl)-2-(3,4-dimethoxyphenyl)tetrahydrofuran-3-yl)methyl 2-methylbut-2-enoate]	AAA (a.r. ≧ 5.0)
C/C=C(/C)C(=O)OC[C@H]1[C@@H](Cc2ccc(C(C)(F)F)cc2)CO[C@@H]1c1ccc(OC)c(OC)c1 [Example 14, (Z)-((2S,3R,4R)-4-(4-(1,1-difluoroethyl)benzyl)-2-(3,4-dimethoxyphenyl)tetra-hydrofuran-3-yl)methyl 2-methylbut-2-enoate]	A (a.r. ≧ 1.50)
